Read-outs that look alike come from different tables or passages of the source.
Tests used:
Assay type in all cases: biochemical
human cathepsin L = human cathepsin L (Homo sapiens, UniProt P07711); test: fluorogenic peptide cleavage assay
human cathepsin B = human cathepsin B (Homo sapiens, UniProt P07858); test: fluorogenic peptide cleavage assay
SARS-CoV-2 3CL^pro = SARS-CoV-2 3CL^pro (Severe acute respiratory syndrome coronavirus 2, UniProt P0DTD1)

Sequence of human cathepsin L (P07711 114-333 limits assumed): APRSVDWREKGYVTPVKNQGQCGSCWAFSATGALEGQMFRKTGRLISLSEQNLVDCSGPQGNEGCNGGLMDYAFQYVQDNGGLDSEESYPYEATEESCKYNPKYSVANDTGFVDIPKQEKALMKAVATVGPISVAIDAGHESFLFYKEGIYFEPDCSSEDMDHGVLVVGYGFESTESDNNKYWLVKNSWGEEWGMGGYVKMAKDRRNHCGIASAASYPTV

In the case of CC(C)C[C@H](NC(=O)c1cc2c(F)cccc2[nH]1)C(=O)NN(C[C@@H]1CCNC1=O)C(=O)[C@H](F)Cl [8a, N-((S)-1-(2-((R)-2-Chloro-2-fluoroacetyl)-2-(((S)-2-oxopyrrolidin-3-yl)methyl)hydrazineyl)-4-methyl-1-oxopentan-2-yl)-4-fluoro-1H-indole-2-carboxamide], the IC50 (human cathepsin L) is reported as > 10 µM and the IC50 (human cathepsin B) is reported as > 10 µM.
Work on COc1cccc2[nH]c(C(=O)N[C@@H](CC(C)C)C(=O)NN(C[C@H]3CCNC3=O)C(=O)[C@H](F)Cl)cc12 [10b, N-((S)-1-(2-((R)-2-Chloro-2-fluoroacetyl)-2-(((R)-2-oxopyrrolidin-3-yl)methyl)hydrazineyl)-4-methyl-1-oxopentan-2-yl)-4-methoxy-1H-indole-2-carboxamide] yielded an IC50 (SARS-CoV-2 3CL^pro) of 15.6 nM.
“N-((S)-1-(2-Acetyl-2-(((S)-2-oxopyrrolidin-3-yl)methyl)hydrazineyl)-4-methyl-1-oxopentan-2-yl)-4-fluoro-1H-indole-2-carboxamide [compound 12]” showed an IC50 (SARS-CoV-2 3CL^pro; […], no CFA warhead, 30 min preincubation, pH 7.3, 1 mM DTT, ambient temperature) of 178 nM.

Reference: article doi:10.1101/2022.06.05.494897v1 (biorxiv, 2022)
